Experimental data published in patent publication US9447100B2, “Substituted pyrazolo[1,5-A] pyrimidines as calcium receptor modulating agents” (Takeda Pharmaceutical Company Limited, priority 2002, dated 2016).
Structures can show the parent of a compound that is named as a salt.

melting point [°C] | Structure (SMILES)
167 to 168 | CCC(CC)(NC(=O)c1cnn2c1NC(c1ccccc1)CC2(C)C)c1ccc(-c2ccco2)cc1 (stereo not shown) [Example 584, N-(1-ethyl-1-(4-(2-furyl)phenyl)propyl)-7,7-dimethyl-5-phenyl-4,5,6,7-tetrahydropyrazolo[1,5-a]pyrimidine-3-carboxamide]
230 to 231 | O=C(NC12CC3CC(CC(C3)C1)C2)c1cnn2c1NC(c1ccco1)CC2C(F)(F)F (stereo not shown) [Example 270, N-(1-adamantyl)-5-(2-furyl)-7-(trifluoromethyl)-4,5,6,7-tetrahydropyrazolo[1,5-a]pyrimidine-3-carboxamide]
225 to 226 | CCC(NC(=O)c1cnn2c1NC(c1ccccc1)CC2C(F)(F)F)c1ccccc1C (stereo not shown) [Example 399, N-(1-(2-methylphenyl)propyl)-5-phenyl-7-(trifluoromethyl)-4,5,6,7-tetrahydropyrazolo[1,5-a]pyrimidine-3-carboxamide]
154 to 155 | O=C(CNC(=O)c1cnn2c1N[C@H](c1ccccc1)C[C@@H]2C(F)(F)F)c1ccccc1Cl (stereo in doubt) [Example 289, N-(2-(2-chlorophenyl)-2-oxoethyl)-5-phenyl-7-(trifluoromethyl)-4,5,6,7-tetrahydropyrazolo[1,5-a]pyrimidine-3-carboxamide]
141 to 142 | O=C(NCC(=O)c1cccc2ccccc12)c1cnn2c1N[C@H](c1ccccc1)C[C@@H]2C(F)(F)F (stereo in doubt) [Example 286, N-(2-(1-naphthyl)-2-oxoethyl)-5-phenyl-7-(trifluoromethyl)-4,5,6,7-tetrahydropyrazolo[1,5-a]pyrimidine-3-carboxamide]
181 to 182 | CCCC(CC)(CC)NC(=O)c1c(C)nn2c1NC(c1ccccc1F)CC2(C)C (stereo not shown) (as salt: HCl) [Example 957, N-(1,1-diethylbutyl)-5-(2-fluorophenyl)-2,7,7-trimethyl-4,5,6,7-tetrahydropyrazolo[1,5-a]pyrimidine-3-carboxamide]
196 to 197 | CCC(CC)(NC(=O)c1cnn2c1NC(c1ccccc1)CC2(C)C)c1ccc(C(C)(C)C)cc1 (stereo not shown) [Example 417, N-(1-(4-tert-butylphenyl)-1-ethylpropyl)-7,7-dimethyl-5-phenyl-4,5,6,7-tetrahydropyrazolo[1,5-a]pyrimidine-3-carboxamide]
243 to 244 | O=C(c1cnn2c1N[C@H](c1ccccc1)C[C@@H]2C(F)(F)F)N(C1CCCCC1)C1CCCCC1 (stereo in doubt) [Example 373, N,N-dicyclohexyl-5-phenyl-7-(trifluoromethyl)-4,5,6,7-tetrahydropyrazolo[1,5-a]pyrimidine-3-carboxamide]
193 to 194 | CCC(CC)(NC(=O)c1c(C)nn2c1N[C@@H](c1ccccc1)CC2(C)C)c1ccc(Cl)cc1 (as salt: HCl) [Example 1043, (5R)-N-(1-(4-chlorophenyl)-1-ethylpropyl)-2,7,7-trimethyl-5-phenyl-4,5,6,7-tetrahydropyrazolo[1,5-a]pyrimidine-3-carboxamide]
280 to 282 | O=C(NC1C2CC3CC(C2)CC1C3)c1cnn2c1NC(c1ccc3ccccc3c1)CC2C(F)(F)F (stereo not shown) [Example 90, N-(2-adamantyl)-5-(2-naphthyl)-7-(trifluoromethyl)-4,5,6,7-tetrahydropyrazolo[1,5-a]pyrimidine-3-carboxamide]
198 to 199 | COc1ccccc1C1CC(C)(C)n2nc(C)c(C(=O)O)c2N1 (stereo not shown) [Example 944, 5-(2-methoxyphenyl)-2,7,7-trimethyl-4,5,6,7-tetrahydropyrazolo[1,5-a]pyrimidine-3-carboxylic acid]
94 to 95 | CC(NC(=O)c1cnn2c1NC(c1ccc3ccccc3c1)CC2C(F)(F)F)C1C2CC3CC(C2)CC1C3 (stereo not shown) [Example 91, N-(1-(2-adamantyl)ethyl)-5-(2-naphthyl)-7-(trifluoromethyl)-4,5,6,7-tetrahydropyrazolo[1,5-a]pyrimidine-3-carboxamide]
162 to 163 | CCCOC(=O)c1ccc(C(CC)(CC)NC(=O)c2cnn3c2NC(c2ccccc2)CC3(C)C)cc1 (stereo not shown) [Example 762, propyl 4-(1-(((7,7-dimethyl-5-phenyl-4,5,6,7-tetrahydropyrazolo[1,5-a]pyrimidin-3-yl)carbonyl)amino)-1-ethylpropyl)benzoate]
226 to 227 | CC1(C)C[C@@H](c2ccccc2)Nc2c(C(=O)NC34CC5CC(CC(C5)C3)C4)cnn21 [Example 1029, (5S)-N-1-adamantyl-7,7-dimethyl-5-phenyl-4,5,6,7-tetrahydropyrazolo[1,5-a]pyrimidine-3-carboxamide]
173 to 175 | CCC1(CC)C[C@H](OCc2ccccc2)CN1C(=O)c1cnn2c1N[C@@H](c1ccccc1)CC2(C)C [Example 1107, (5R)-3-(((4S)-4-(benzyloxy)-2,2-diethy-1-pyrrolidinyl)carbonyl)-7,7-dimethyl-5-phenyl-4,5,6,7-tetrahydropyrazolo[1,5-a]pyrimidine]
212 to 214 | CCC(CC)(NC(=O)c1cnn2c1NC(c1ccco1)CC2(C)C)c1ccc(C(F)(F)F)cc1 (stereo not shown) [Example 693, N-(1-ethyl-1-(4-(trifluoro-methyl)phenyl)propyl)-5-(2-furyl)-7,7-dimethyl-4,5,6,7-tetrahydropyrazolo[1,5-a]pyrimidine-3-carboxamide]
149 to 150 | CCC(CC)(NC(=O)c1c(C)nn2c1NC(c1ccccc1)CC2(C)C)c1ccc(SC)cc1 (stereo not shown) [Example 833, N-(1-ethyl-1-(4-(methylthio)phenyl)propyl)-2,7,7-trimethyl-5-phenyl-4,5,6,7-tetrahydropyrazolo[1,5-a]pyrimidine-3-carboxamide]
174 to 175 | CCC(CC)(NC(=O)c1cnn2c1NC(c1ccccc1)CC2(CC)CC)c1ccc(C(F)(F)F)cc1 (stereo not shown) [Example 185, 7,7-diethyl-N-(1-ethyl-1-(4-(trifluoromethyl)phenyl)propyl)-5-phenyl-4,5,6,7-tetrahydropyrazolo[1,5-a]pyrimidine-3-carboxamide]
122 to 124 | CCC1(CC)C[C@H](OC)CN1C(=O)c1cnn2c1N[C@@H](c1ccccc1)CC2(C)C [Example 1113, (5R)-3-(((4S)-2,2-diethyl-4-methoxy-1-pyrrolidinyl)carbonyl)-7,7-dimethyl-5-phenyl-4,5,6,7-tetrahydropyrazolo[1,5-a]pyrimidine]
155 to 156 | CCC(CC)(NC(=O)c1cnn2c1NC(c1ccccc1)CC2(C)C)C(C)C (stereo not shown) [Example 620, N-(1,1-diethyl-2-methylpropyl)-7,7-dimethyl-5-phenyl-4,5,6,7-tetrahydropyrazolo[1,5-a]pyrimidine-3-carboxamide]
250 to 252 | CCC1(CC)C[C@@H](O)CN1C(=O)c1cnn2c1N[C@@H](c1ccccc1)CC2(C)C [Example 1115, (3R)-1-(((5R)-7,7-dimethyl-5-phenyl-4,5,6,7-tetrahydropyrazolo[1,5-a]pyrimidin-3-yl)carbonyl)-5,5-diethyl-3-pyrrolidinol]
152 to 153 | CCOC(=O)c1ccc(C(CC)(CC)NC(=O)c2c(C)nn3c2NC(c2ccccc2)CC3(C)C)cc1 (stereo not shown) [Example 954, ethyl 4-(1-ethyl-1-(((2,7,7-trimethyl-5-phenyl-4,5,6,7-tetrahydropyrazolo[1,5-a]pyrimidin-3-yl)carbonyl)amino)propyl) benzoate]
